From US12187662B2, “FOXM1 inhibitor compositions and methods of using the same” (The Board of Trustees of the University of Illinois, priority 2018, dated 2025)
“Also recorded” adds a separate entry of the source.

Columns and labels:
[1] = biological target: T1, FOXM1 protein (Homo sapiens, UniProt Q08050); experiment: Direct binding of Fl-NB-72 to FOXM1 by tr-FRET; details: direct tr-FRET titration
T1 construct: a terbium donor was attached to purified full length FOXM1 through a streptavidin-biotin linker
T1 sequence (Q08050 1-763): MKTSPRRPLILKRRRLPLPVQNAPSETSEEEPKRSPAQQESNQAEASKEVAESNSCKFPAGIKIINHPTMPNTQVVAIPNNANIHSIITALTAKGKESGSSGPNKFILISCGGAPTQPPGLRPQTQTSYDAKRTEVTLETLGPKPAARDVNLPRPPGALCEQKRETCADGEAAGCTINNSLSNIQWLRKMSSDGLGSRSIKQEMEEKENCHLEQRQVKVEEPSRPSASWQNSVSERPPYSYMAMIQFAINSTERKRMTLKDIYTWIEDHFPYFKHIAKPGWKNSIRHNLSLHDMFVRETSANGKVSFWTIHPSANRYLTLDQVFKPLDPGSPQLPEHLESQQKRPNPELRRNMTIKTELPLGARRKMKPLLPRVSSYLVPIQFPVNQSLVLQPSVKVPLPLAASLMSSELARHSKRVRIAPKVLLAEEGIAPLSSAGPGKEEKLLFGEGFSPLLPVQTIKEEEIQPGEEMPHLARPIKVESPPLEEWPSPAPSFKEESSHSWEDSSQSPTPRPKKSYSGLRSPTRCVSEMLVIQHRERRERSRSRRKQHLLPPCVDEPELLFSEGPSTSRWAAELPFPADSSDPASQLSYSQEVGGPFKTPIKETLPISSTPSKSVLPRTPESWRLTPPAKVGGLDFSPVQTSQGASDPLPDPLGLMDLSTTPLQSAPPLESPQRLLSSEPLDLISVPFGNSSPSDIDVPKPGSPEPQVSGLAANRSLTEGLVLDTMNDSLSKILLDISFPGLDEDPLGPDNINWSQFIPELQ
Protocol: Direct binding experiments for determination of Kd for Fl-NB-72. […] The Biotin-FOXM1 was diluted to a concentration of 3×(5 nM+1.25 nM SaTb). 5 μL of each of these were mixed on a black Molecular Devices microtiter plate with 5 μL of FRET buffer, so that each component was diluted 3×. Each point was prepared in duplicate, mixed, and incubated for 1 h at room temperature, in the dark. tr-FRET was measured on a Victor X5 microtiter plate reader with settings as given above.

[2] = tested on: MCF7 cells; experiment: Cell proliferation assay (WST-1), MCF7; format: cell-based, human; details: inhibition of cell proliferation; read-out: IC50 MCF7
Protocol: (§1) All cells were tested for mycoplasma using Real-Time PCR Mycoplasma Detection Kit (Akron Biotech, Boca Raton, FL).
(§2) All assays were performed in triplicate.

[3] = tested on: DT22 cells; experiment: Cell proliferation assay (WST-1), DT22; format: cell-based, human; details: inhibition of cell proliferation; read-out: IC50 DT-22
Protocol: as §1, §2

[4] = tested on: breast cancer cell lines; experiment: Proliferation of breast cancer cell lines (panel, line not specified); format: cell-based, human
Protocol: as §1, §2

[5] = tested on: FOXM1 target genes in DT22 cells; experiment: FOXM1 target gene expression by qRT-PCR, DT22; format: cell-based, human; details: DT22, 24 h, at IC50 concentration
Source text: RNA was extracted from cells and expression of different genes was monitored by qRT-PCR. Assays were run in triplicate. Values are mean±SEM. *, p<0.05; **, p<0.01; ***, p<0.001. RNA isolation and real-time PCR Total RNA was isolated using TRIzol (Invitrogen) and reverse transcribed using […] reverse transcriptase (New England BioLabs). […] Relative mRNA levels of genes were normalized to the housekeeping gene 36B4, and fold change calculated relative to the vehicle treated samples. Results are the average±SD from at least two independent experiments carried out in triplicate. Primer sequences for the genes studied were obtained from the Harvard Primer Bank. Sequences are available on their website.

[6] = tested on: DT22 triple negative human breast tumor xenografts; experiment: DT22 triple negative breast tumor xenografts in NSG mice; format: in vivo, mouse
Protocol: In vivo breast cancer xenograft studies For examination of the growth of triple-negative DT22 breast tumors, intact female NOD/SCID-gamma (NSG) mice were used. DT-22 cells (1×10^6 cells/mouse) were injected s.c. into the right axial mammary gland. Mice received s.c. injection or oral gavage daily or every second or third day, as indicated, with vehicle or FOXM1 inhibitor compound, and tumor growth was monitored over time.

[7] = tested on: MCF10A cells; experiment: Cell proliferation, MCF10A (low FOXM1); format: cell-based, human; details: 6 days
Protocol: (§3) Cell lines and cell culture methods MCF7 and other breast cancer cell lines were obtained from the ATCC and were maintained and cultured as described (Bergamaschi et al., Breast Cancer Res., 2014, 16:436; Madak-Erdogan et al., Mol. Syst. Biol., 2013, 9:676; Zhao et al., Cancer Res., 2017, 77:5602-13). DT22 cells were derived from a human triple negative invasive ductal breast carcinoma and were grown in culture as described (Drews-Elger et al., Breast cancer research and treatment, 2014, 144:503-17). All cells were tested for mycoplasma using Real-Time PCR Mycoplasma Detection Kit (Akron Biotech, Boca Raton, FL).
(§4) Cell proliferation assay WST-1 assay (Roche, Basel, Switzerland) was used to quantify cell viability as described (Gong et al., Mol. Cell Endocrinol., 2016, 437:190-200). Absorbance was measured at 450 nm using a VICTOR X5 PerkinElmer 2030 Multilabel Plate Reader. All assays were performed in triplicate.

[8] = tested on: MDA-MB-453 breast cancer cells; experiment: Cell proliferation, MDA-MB-453; format: cell-based, human; details: inhibition of cell proliferation
Protocol: as §3, §4

[9] = Pharmacokinetic studies in mice after single s.c. or oral dose; details: mice
Protocol: For s.c. injection, each compound was dissolved in DMSO and then mixed with corn oil for a total injection volume of 100 μL (10% DSMO+90% corn oil) per mouse. For oral gavage, compounds were administered in a 200 μL formulation of 9/0.5/0.5/90 parts of PEG400/Tween80/Povidone/0.5% Carboxymethylcellulose. […] Compounds were quantified by LC-MS/MS at the University of Illinois Metabolomics Core Facility. The data were fitted to a non-compartment model.

[10] = tested on: MCF7 xenograft tumors; experiment: MCF7 breast cancer xenografts in ovariectomized NSG mice; format: in vivo, mouse; details: 100 mg/kg s.c. daily
Protocol: For examination of the growth of ER-positive MCF7 xenograft tumors, female NSG mice were ovariectomized, and 2 weeks after ovariectomy, animals were supplemented with 0.36 mg E2-pellets (60-day release, Innovative Research of America) to support ER+ tumor growth. Cell suspensions of wild type MCF7 cells (1×10^6 cells/mouse) were injected subcutaneously (sc) in the right axial mammary gland and when tumors reached 100-150 mm^3 in size, mice were randomized and received compound or control vehicle (corn oil) by s.c. injection or oral gavage (PEG400/PVP/Tween/CMC as Veh) at the frequency indicated and tumor volume (length><width 2/2) was monitored over time.

[11] = biological target: T1, FOXM1 protein; experiment: Competitive binding of inhibitors to FOXM1 by tr-FRET (Fl-NB-72 probe); details: tr-FRET competition with Fl-NB-72; Ki calculated from IC50 (Cheng-Prusoff)
Protocol: Competitive binding assays of FOXM1 inhibitor binding to FOXM1 by tr-FRET were conducted. All tr-FRET experiments used FRET buffer (20 mM Tris, pH 7.5, 50 mM NaCl, 0.01% NP-40 detergent, 10% glycerol) with 0.3 mg/ml ovalbumin and 0.1 mM butylated hydroxy-anisole added fresh daily. Solutions of the protein, fluorescent probe and inhibitor dilutions were prepared at 3× the final concentrations, the final dilution taking place as they were mixed together on the microtiter plate.
Final concentrations were 10^-5M to 10^-9M, with the last point being buffer only, no inhibitor. Fluorescein-NB-72 (Fl-NB-72) was prepared at 1 mM in DMF and stored at −20° C. It was diluted into plain FRET buffer to give 100 nM in the assay.
Incubations were done in duplicate on black Molecular Devices 96-well microtiter plates. […] To this were added 5 μL of the inhibitor dilutions, mixed and incubated, in the dark, at room temperature, for 1 h. […] Diffusion-enhanced FRET was determined by a parallel incubation without biotin-FOXM1 and subtracted as a background signal. Graphs were prepared using Graph Pad/Prism 4.

[12] = tested on: FOXM1 target genes in MCF7 cells; experiment: FOXM1 target gene expression by qRT-PCR, MCF7; format: cell-based, human; details: MCF7, 24 h, at IC50 concentration
Protocol: RNA was extracted from cells and expression of different genes was monitored by qRT-PCR. Assays were run in triplicate. Values are mean±SEM. *, p<0.05; **, p<0.01; ***, p<0.001. RNA isolation and real-time PCR Total RNA was isolated using TRIzol (Invitrogen) and reverse transcribed using […] reverse transcriptase (New England BioLabs). Real-time PCR was performed using SYBRgreen PCR Master Mix (Roche) as described (Bergamaschi et al., Breast Cancer Res., 2014, 16:436). Relative mRNA levels of genes were normalized to the housekeeping gene 36B4, and fold change calculated relative to the vehicle treated samples. Results are the average±SD from at least two independent experiments carried out in triplicate. Primer sequences for the genes studied were obtained from the Harvard Primer Bank. Sequences are available on their website.

Compound	Kd [1]	IC50 [2]	IC50 [3]	IC50 ([4]; cell line not specified or several lines, read-out: IC50 for inhibition of proliferation of breast cancer cell lines)	Reduced potency in suppression of cell proliferation (versus salts) ([4]; cells in culture)	Expression of ATF3 (gene suppressed by FOXM1) [5]	Expression of FOXM1 stimulated target genes (FOXM1C, AURKB, CCNB1, PLK1) [5]	Tumor suppression at lower doses ([6]; 20 or 40 mg/kg (data not shown))	Growth of DT22 tumor xenografts ([6]; daily s.c. or oral, 100 mg/kg)	Concentration for 50% suppression of proliferation in MCF10A versus cells with high and intermediate FOXM1 [7]	IC50 [8]	PK p.o. AUC0-48 ([9]; 40 mg/kg p.o.)	PK p.o. t1/2 ([9]; 40 mg/kg p.o.)	PK s.c. AUC0-48 ([9]; 40 mg/kg s.c.)	PK s.c. t1/2 ([9]; 40 mg/kg s.c.)	Growth of MCF7 E2-treated xenograft tumors [10]	Ki [11]	Expression of ATF3 (gene suppressed by FOXM1) [12]	Expression of FOXM1 stimulated target genes (FOXM1C, AURKB, CCNB1, PLK1) [12]
O=C(NCCCCCCOc1ccc(C(c2ccc(OCCCCCCN3CCCCCC3)cc2)=C2C3C[C@H]4C[C@@H](C3)C[C@H]2C4)cc1)c1ccc(-c2c3ccc(=O)cc-3oc3cc(O)ccc23)c(C(=O)O)c1 [Fl-NB-72, 5-((6-(4-((L′)-((5r,7r)-adamantan-2-ylidene)(4-((6-(azepan-1-yl)hexyl)oxy)phenyl)methyl)phenoxy)hexyl)carbamoyl)-2-(6-hydroxy-3-oxo-3H-xanthen-9-yl)benzoic acid]	23 nM																		
Clc1ccc(C(=C2C3CC4CC(C3)CC2C4)c2ccc(OCCCCCCN3CCCC3)cc2)cc1 [NB-55, 1-(6-(4-((-((Z)-((5S,7S)-Adamantan-2-ylidene)(4-chlorophenyl)methyl)phenoxy)hexyl)pyrrolidine]		3000 nM	6000 nM	2000 to 10000 nM	5 fold	increased	significantly reduced	only marginally effective	effective tumor suppression; also recorded: very effectively suppressed	five times higher	3000 to 5000 nM	35.7 µM·h	16.6 h	34.7 µM·h	26.7 h	reduces; also recorded: reduced the growth	230 nM	increased	significantly reduced
